These results are taken from paper PMC10761396, “Evaluation of new alternative methods for the identification of estrogenic, androgenic and steroidogenic effects: a comparative in vitro/in silico study” (Archives of Toxicology, 2023).

Each structure is given as a SMILES string.

The target of one data set is T1, ERα (Homo sapiens, UniProt P03372).
T1 sequence (P03372 1-595): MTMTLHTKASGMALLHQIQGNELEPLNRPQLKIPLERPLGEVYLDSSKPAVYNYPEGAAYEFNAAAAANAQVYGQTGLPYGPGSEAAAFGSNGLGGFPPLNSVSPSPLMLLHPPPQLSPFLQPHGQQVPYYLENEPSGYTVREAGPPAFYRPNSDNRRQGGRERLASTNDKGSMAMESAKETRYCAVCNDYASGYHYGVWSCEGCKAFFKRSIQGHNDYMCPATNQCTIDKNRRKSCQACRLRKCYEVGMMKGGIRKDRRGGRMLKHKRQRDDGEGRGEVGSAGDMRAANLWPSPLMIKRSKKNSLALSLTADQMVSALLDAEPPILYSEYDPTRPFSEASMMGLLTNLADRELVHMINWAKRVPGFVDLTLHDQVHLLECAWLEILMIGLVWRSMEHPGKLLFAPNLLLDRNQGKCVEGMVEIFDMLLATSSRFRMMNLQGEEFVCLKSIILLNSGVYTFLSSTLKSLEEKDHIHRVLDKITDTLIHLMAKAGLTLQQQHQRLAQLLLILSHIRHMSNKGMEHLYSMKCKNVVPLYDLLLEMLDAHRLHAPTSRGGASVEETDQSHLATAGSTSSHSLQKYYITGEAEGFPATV
The experiment in a line: YES (Yeast oestrogen screen) assay, agonist and antagonist mode. As to conditions: YES agonist assay; duplicates in two independent experiments.

The target in data set [1] is T2, human recombinant CYP19A1 (Homo sapiens, UniProt P11511).
T2 sequence (P11511 1-503): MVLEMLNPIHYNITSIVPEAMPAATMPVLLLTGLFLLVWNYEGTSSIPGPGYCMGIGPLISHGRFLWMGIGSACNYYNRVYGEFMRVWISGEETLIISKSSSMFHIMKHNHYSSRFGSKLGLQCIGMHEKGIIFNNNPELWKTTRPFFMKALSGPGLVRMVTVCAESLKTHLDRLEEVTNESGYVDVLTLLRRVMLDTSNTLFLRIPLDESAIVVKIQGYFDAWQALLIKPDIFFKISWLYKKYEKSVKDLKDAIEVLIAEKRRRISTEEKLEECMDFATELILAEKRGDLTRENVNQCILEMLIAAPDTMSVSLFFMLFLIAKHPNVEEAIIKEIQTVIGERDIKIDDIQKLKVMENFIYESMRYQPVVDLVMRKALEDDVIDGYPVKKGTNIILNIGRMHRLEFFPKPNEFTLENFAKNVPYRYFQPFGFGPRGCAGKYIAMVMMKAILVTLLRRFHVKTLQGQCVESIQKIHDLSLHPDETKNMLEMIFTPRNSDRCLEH
The experiment in a line: Recombinant enzyme aromatase activity inhibition assay. It counts as biochemical. As to conditions: follow-up dose–response assay. The method, then: An aromatase inhibition assay was also included in the in vitro assay panel. This enzyme – otherwise known as CYP19A1 - is responsible for converting androgens into estrogens (Blakemore and Naftolin 2016; Bulun 2014); therefore, chemicals that inhibit aromatase activity can lead to reduced estrogen production, which can affect reproductive and developmental processes (Kragie 2002; Tiboni and Ponzano 2016).
The metabolite, estradiol, was measured by time-resolved fluorescence according to the method described previously (Ji et al. 2014). Enzyme inhibition was calculated as a % inhibition of control enzyme activity.

The next data set has as its system human (non-selective) ER. The experiment in a line: ER radioligand ([3H]estradiol) receptor-binding assay. As to conditions: for inhibition of control specific binding to the ER: single-dose screening, 10 µM.
The subject of another data set is ER. Further details: method as in Browne, et al (2015). To be noted: ref Browne, et al (2015), cited from earlier work; for ToxCast Pathway Model (AUC): as agonist where given, value above 0.1 = significant interaction.
Data set [2] relates to AR. To be noted: AR pathway model; ref Kleinstreuer et al (2017) 10.1021/acs.chemrestox.6b00347; cited from earlier work.
Data set [3] addresses T3, AR (Homo sapiens, UniProt P10275).
T3 sequence (P10275 1-920): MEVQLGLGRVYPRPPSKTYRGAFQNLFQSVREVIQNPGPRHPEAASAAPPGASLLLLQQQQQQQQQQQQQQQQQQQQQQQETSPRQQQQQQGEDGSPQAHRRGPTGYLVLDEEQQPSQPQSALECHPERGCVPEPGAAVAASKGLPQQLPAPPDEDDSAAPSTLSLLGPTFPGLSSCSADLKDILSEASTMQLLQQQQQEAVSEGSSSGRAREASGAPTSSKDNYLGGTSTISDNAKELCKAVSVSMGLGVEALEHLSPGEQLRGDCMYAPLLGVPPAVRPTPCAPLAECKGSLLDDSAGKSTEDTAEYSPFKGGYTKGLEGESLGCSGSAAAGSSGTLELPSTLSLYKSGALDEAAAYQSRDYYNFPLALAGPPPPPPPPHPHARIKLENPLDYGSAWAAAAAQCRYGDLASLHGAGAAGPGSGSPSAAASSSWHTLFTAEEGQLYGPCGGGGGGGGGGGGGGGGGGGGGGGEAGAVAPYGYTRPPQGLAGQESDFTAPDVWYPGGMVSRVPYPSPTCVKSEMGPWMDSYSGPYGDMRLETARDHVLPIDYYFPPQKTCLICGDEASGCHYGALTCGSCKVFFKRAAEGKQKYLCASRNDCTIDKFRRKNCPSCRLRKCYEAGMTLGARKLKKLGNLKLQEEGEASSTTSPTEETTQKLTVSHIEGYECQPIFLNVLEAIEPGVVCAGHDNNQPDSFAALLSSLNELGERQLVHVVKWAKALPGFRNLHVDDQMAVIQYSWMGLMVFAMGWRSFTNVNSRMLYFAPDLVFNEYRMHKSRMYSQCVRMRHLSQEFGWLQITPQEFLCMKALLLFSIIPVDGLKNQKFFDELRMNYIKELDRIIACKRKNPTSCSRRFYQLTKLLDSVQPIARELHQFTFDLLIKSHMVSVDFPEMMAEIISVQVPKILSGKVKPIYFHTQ
The experiment in a line: YAS (Yeast androgen screen) assay, agonist and antagonist mode.
Procedure: (§1) The YES/YAS XL (Xtra Lyticase) assay kit from Xenometrix AG (Allschwil, Switzerland) was conducted according to the Supplier’s instructions.
(§2) In the YES assay, human ERα is integrated in the yeast (Saccharomyces cerevisiae) chromosome, and for the YAS assay human AR is integrated (Routledge and Sumpter 1996; Sohoni and Sumpter 1998). […] This enzyme then converts a yellow substrate to a purple metabolite, which can be measured colorimetrically.
(§3) Growing yeast cells stably transformed with either hERα (YES) or hAR (YAS) and a β-galactosidase reporter system were exposed to a range of concentrations of each test compound. […] The positive control chemicals for agonistic effects were 17-β estradiol for YES and 5α-dihydrotestosterone for YAS. […] A combination of a fixed concentration of positive control and a range of concentrations of each test chemical were tested. The cells were incubated with each treatment for 18 h at 31°C. The cells were lysed in the presence of the yellow β-galactosidase-substrate, chlorophenol red-β-D-galactopyranoside (CPRG). Yeast cell growth was assessed prior to addition of the lysis buffer by measuring the absorbance at 690 nm. The production of the red metabolite of CPRG was determined by measuring the absorbance at 570 nm. It was corrected for diffraction by cells and debris by a simultaneous measurement at 690 nm. The results were evaluated for estrogenic and androgenic agonistic and antagonistic activity, as well as for yeast growth inhibition or cytotoxicity.
(§4) An IR value ≥ IR10 in the YES or YAS agonist assay indicates an agonistic effect (IR10 is defined as the IR which is 10% of (IR max - IR solvent) above the IR solvent. An IR value ≤ IR50 in the YES or YAS antagonist assay indicates a possible antagonistic effect (IR50 is defined as 50% of (IR control - IR solvent), where the IR control is at the corresponding fixed concentration of agonist used: 3.3 × 10^-10 M 17-β estradiol and 3.3 × 10^-9 M 5α-dihydrotestosterone, respectively). […]

Procedure for ERα: as §1, §2, §3, §4
Procedure for human (non-selective) ER: The chemicals were tested for their ability to bind to different targets. […] Chemicals were incubated at 10 µM with cells overexpressing ER or AR for 24 h at 4°C, after which, the binding of the radiolabeled ligand ([^3H]estradiol for ER and [^3H]methyltrienolone for AR) was measured by liquid scintillation counting. An increase or decrease higher than 50% were considered to represent significant effects. Four chemicals were tested in additional incubations at several concentrations up to the maximum soluble concentration for IC50 or EC50 determination for the associated target. Receptor binding was calculated as a % inhibition of the binding of a radioactively labeled ligand specific for each target.
Each test chemical was tested in a single assay in duplicate.

On to `C[C@]12CCC(=O)C[C@@H]1CC[C@@H]1[C@@H]2CC[C@@]2(C)[C@H]1CC[C@]2(C)O` [Mestanolone, mestanolone, reference compound], for which the “ER agonism in the YES assay” value on ERα is “positive”. Also, the aromatase inhibition outcome in data set [1] was “lack of binding”. Also, in the data set on human (non-selective) ER, the ER binding outcome was “confirmed to bind to the ER” and the “inhibition of control specific binding to the ER” value is listed as “more than 50%”. At human (non-selective) ER (follow-up dose–response assay), the IC50 came to 1600 nM and the inhibition constant (Ki) is 520 nM.

For `O=c1c(-c2ccc(O)cc2)coc2cc(O)ccc12` [Daidzein, daidzein], the “ER agonism in the YES assay” value on ERα is “positive”. The aromatase inhibition outcome in data set [1] is “lack of binding”. Moreover, the “ToxCast Pathway Model (AUC)” value in the data set with ER was 0.44; in the data set with AR [2], “AUC = 0, then there is no significant interaction”. Also, in the data set on ER, the “ToxCast Pathway Model interaction” value was “significant interaction”. Besides, the “inhibition of control specific binding to the ER” value in the data set on human (non-selective) ER is reported as “more than 50%”.

As to `CC(C)(C)CC(C)(C)c1ccc(O)cc1` [4-TO, 4-tert-octylphenol], in the data set on ER, the “ToxCast Pathway Model (AUC)” value was 0.393 and the “ToxCast Pathway Model interaction” value is on record as “significant interaction”. Moreover, the “ToxCast Pathway Model (AUC)” value in the data set with AR [2] was “AUC = 0.23 as agonist, then there is a significant interaction”. In addition, the “outcome in the YAS assay” value at AR [3] (agonist and antagonist) is reported as “negative”. On AR [3] (highest concentrations tested), the “toxicity to yeast (decrease in the yeast cell growth)” value was “toxic at the highest concentrations tested”.

On to `CCCCN(CCCC)c1ccc(C(=O)c2ccccc2C(=O)O)c(O)c1` [DBABA, 2-[4-(dibutylamino)-2-hydroxybenzoyl]benzoic acid], for which the “AR antagonism in the YAS assay” value at AR [3] (YAS antagonist assay) is “inconclusive”.
